Assay results reported in PubChem BioAssay (NCI).
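Protocol summary: plate cells (96-well), add compound at 5 concentrations, incubate 48 h, interpolate endpoints linearly. GI50 = concentration required for 50% inhibition of growth. TGI: concentration producing complete growth inhibition.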

Legend:
Assay in all cases: NCI-60 cell line screen, 48 h
[1] = system: EKVX NSCLC
[2] = system: HT29 colon
[3] = system: NCI-H460 lung
[4] = system: NCI-H522 lung
[5] = system: NCI/ADR-RES ovarian
[6] = system: SF-268 CNS
[7] = system: SN12C renal
[8] = system: TK-10 renal
[9] = system: UACC-257 melanoma
[10] = system: UACC-62 melanoma

Compound	GI50 [1]	TGI [1]	GI50 [2]	TGI [2]	GI50 [3]	TGI [3]	GI50 [4]	TGI [4]	GI50 [5]	TGI [5]	GI50 [6]	TGI [6]	GI50 [7]	TGI [7]	GI50 [8]	TGI [8]	GI50 [9]	TGI [9]	GI50 [10]	TGI [10]
N=c1ccc2nc3c(cc(N)c4ccccc43)oc-2c1	0.174 µM	1.09 µM	0.535 µM	1.7 µM	0.223 µM	0.565 µM	0.19 µM	0.501 µM	0.223 µM	1.09 µM	0.431 µM	1.75 µM	0.253 µM	0.801 µM	0.737 µM	2.4 µM	0.271 µM	0.819 µM	0.197 µM	0.539 µM
COC(=O)c1ccc(CN2C(=O)C(Cl)=C(Nc3ccc(OC)c(Cl)c3)C2=O)cc1	22.3 µM	> 50 µM			14.8 µM	> 50 µM	3.84 µM	21.5 µM	12.7 µM	30.9 µM	15.4 µM	> 50 µM	9.04 µM	33.7 µM	> 50 µM	> 50 µM	19.4 µM	> 50 µM	7.32 µM	21.1 µM
CN(C)CCCc1c2ccccc2nc2ccc(Cl)cc12		35.1 µM		28.5 µM		25.3 µM		29.4 µM		52 µM		33.3 µM		26.1 µM		27.1 µM		26.4 µM		34.2 µM
Cc1ccc2sc3ccc(N)cc3c(=O)c2c1		> 100 µM		> 100 µM		> 100 µM		> 100 µM		> 100 µM		> 100 µM		> 100 µM		> 100 µM		> 100 µM		> 100 µM
CC12CC=CCC1CCC1C2CCC2(C)C(c3ccc(=O)oc3)CCC12O (stereo not drawn)	0.0602 µM	0.212 µM	0.0633 µM	0.768 µM	0.0338 µM	0.128 µM	0.0383 µM	0.273 µM	0.0485 µM	0.276 µM	0.0475 µM	0.268 µM	0.0378 µM	0.47 µM	0.0607 µM	0.496 µM	0.246 µM	0.769 µM	0.233 µM	0.661 µM
COC(=O)[C@]1(C)CCC[C@@]2(C)[C@@H]3C[C@@H]4[C@H]5C[C@@]3(CC[C@@H]21)C[C@@]45C		31.7 µM		27.6 µM				32.9 µM		32.1 µM		31.8 µM		33.5 µM		28.3 µM		28.8 µM		28 µM
CNCCNc1nc2ccccc2c2c(=O)c3cc(F)ccc3sc12	1.74 µM	3.57 µM	1.59 µM	3.2 µM	1.78 µM	3.32 µM	1.66 µM	3.42 µM	1.82 µM	3.83 µM	1.69 µM	4.17 µM	1.61 µM	3.29 µM			1.73 µM	3.25 µM	1.73 µM	3.18 µM
CC1(C)C(=O)C=CC2(C)C1CC(O)C1(C)C2CCC2(C)C(c3ccoc3)OC(=O)C3OC321 (stereo not drawn)		33.2 µM		33.7 µM		27.6 µM		27.1 µM		30.5 µM				37.4 µM		37.5 µM				26.9 µM
